Experimental data from PubChem BioAssay AID248 (DTP/NCI, 2004).
Toxic doses and inconclusive results are not listed.

System: L1210 leukemia ip in BDF1 mice, survival T/C
Assay: NCI In Vivo Anticancer Drug Screen. Data for tumor model L1210 Leukemia (intraperitoneal) in B6D2F1 (BDF1) mice
Details: endpoint: mean survival time, higher = longer survival
Outline: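 Mice bearing the transplanted tumor received compound or vehicle. Survival of the treated group was divided by that of the vehicle-treated control group to give the ratio.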

[1] = dose: 100.0 mg/kg/injection, schedule: Q01DX001 (ip), vehicle: saline with Tween-80
[2] = dose: 200.0 mg/kg/injection, schedule: Q01DX001 (ip), vehicle: saline with Tween-80
[3] = dose: 400.0 mg/kg/injection, schedule: Q01DX001 (ip), vehicle: saline with Tween-80
[4] = dose: 100.0 mg/kg/injection, schedule: Q01DX001 (ip), vehicle: saline
[5] = dose: 200.0 mg/kg/injection, schedule: Q01DX001 (ip), vehicle: saline
[6] = dose: 400.0 mg/kg/injection, schedule: Q01DX001 (ip), vehicle: saline
[7] = dose: 200.0 mg/kg/injection, schedule: Q04DX003 (ip), vehicle: saline with Tween-80
[8] = dose: 400.0 mg/kg/injection, schedule: Q04DX003 (ip), vehicle: saline with Tween-80
[9] = dose: 100.0 mg/kg/injection, schedule: Q01DX009 (ip), vehicle: Klucel (hydroxypropylcellulose) (HPC)
[10] = dose: 200.0 mg/kg/injection, schedule: Q01DX009 (ip), vehicle: Klucel (hydroxypropylcellulose) (HPC)
[11] = dose: 400.0 mg/kg/injection, schedule: Q01DX009 (ip), vehicle: Klucel (hydroxypropylcellulose) (HPC)
[12] = dose: 100.0 mg/kg/injection, schedule: Q01DX001 (ip), vehicle: Klucel (hydroxypropylcellulose) (HPC)
[13] = dose: 200.0 mg/kg/injection, schedule: Q01DX001 (ip), vehicle: Klucel (hydroxypropylcellulose) (HPC)
[14] = dose: 400.0 mg/kg/injection, schedule: Q01DX001 (ip), vehicle: Klucel (hydroxypropylcellulose) (HPC)
[15] = dose: 100.0 mg/kg/injection, schedule: Q04DX003 (ip), vehicle: Klucel (hydroxypropylcellulose) (HPC)
[16] = dose: 200.0 mg/kg/injection, schedule: Q04DX003 (ip), vehicle: Klucel (hydroxypropylcellulose) (HPC)
[17] = dose: 400.0 mg/kg/injection, schedule: Q04DX003 (ip), vehicle: Klucel (hydroxypropylcellulose) (HPC)

CCCCP(=O)(CCCC)C1CCCC1
T/C [1]: 103 % of control | T/C [2]: 100 % of control | T/C [3]: 90 % of control

CN(C)c1ncccc1O
T/C [4]: 95 % of control | T/C [5]: 101 % of control | T/C [6]: 106 % of control

COC(=O)C1(C(=O)OC)CC1CCl (configuration not stated)
T/C (dose: 100.0 mg/kg/injection, schedule: Q01DX009 (ip), vehicle: saline with Tween-80): 96 % of control | T/C (dose: 100.0 mg/kg/injection, schedule: Q04DX003 (ip), vehicle: saline with Tween-80): 101 % of control | T/C (dose: 200.0 mg/kg/injection, schedule: Q01DX009 (ip), vehicle: saline with Tween-80): 105 % of control | T/C [7]: 101 % of control | T/C (dose: 400.0 mg/kg/injection, schedule: Q01DX009 (ip), vehicle: saline with Tween-80): 93 % of control | T/C [8]: 95 % of control

N#CC(CCO)(CCO)c1ccccc1
T/C [9]: 101 % of control | T/C [10]: 97 % of control | T/C [11]: 105 % of control

COc1ccc(CCCCCl)cc1
T/C (dose: 100.0 mg/kg/injection, schedule: Q01DX001 (ip), vehicle: acetone): 95 % of control | T/C (dose: 200.0 mg/kg/injection, schedule: Q01DX001 (ip), vehicle: acetone): 95 % of control | T/C (dose: 400.0 mg/kg/injection, schedule: Q01DX001 (ip), vehicle: acetone): 96 % of control

c1cc[c]([Pb]([c]2ccccc2)([c]2ccccc2)[n]2ccc3ccccc32)cc1
T/C (dose: 1.0 mg/kg/injection, schedule: Q04DX003 (ip), vehicle: saline with Tween-80): 113 % of control | T/C (dose: 1.56 mg/kg/injection, schedule: Q01DX009 (ip), vehicle: saline with Tween-80): 91 % of control | T/C (dose: 2.0 mg/kg/injection, schedule: Q04DX003 (ip), vehicle: saline with Tween-80): 90 % of control | T/C (dose: 3.12 mg/kg/injection, schedule: Q01DX009 (ip), vehicle: saline with Tween-80): 89 % of control | T/C (dose: 4.0 mg/kg/injection, schedule: Q04DX003 (ip), vehicle: saline with Tween-80): 101 % of control | T/C (dose: 8.0 mg/kg/injection, schedule: Q04DX003 (ip), vehicle: saline with Tween-80): 101 % of control

CC(=O)C(Sc1ccccc1[N+](=O)[O-])C(C)=O.[Co]
T/C (dose: 50.0 mg/kg/injection, schedule: Q01DX001 (ip), vehicle: other): 92 % of control | T/C (dose: 100.0 mg/kg/injection, schedule: Q01DX001 (ip), vehicle: other): 92 % of control | T/C (dose: 200.0 mg/kg/injection, schedule: Q01DX001 (ip), vehicle: other): 92 % of control | T/C (dose: 400.0 mg/kg/injection, schedule: Q01DX001 (ip), vehicle: other): 100 % of control

O=C(O)c1ccc(C(=O)O)c(C(=O)O)c1.[NH-]C1CCCCC1[NH-].[Pt+2]
T/C (dose: 1.6 mg/kg/injection, schedule: Q01DX009 (ip), vehicle: sodium bicarbonate): 198 % of control | T/C (dose: 3.2 mg/kg/injection, schedule: Q01DX009 (ip), vehicle: sodium bicarbonate): 256 % of control | T/C (dose: 3.3 mg/kg/injection, schedule: Q01DX009 (ip), vehicle: saline): 187 % of control | T/C (dose: 4.8 mg/kg/injection, schedule: Q01DX009 (ip), vehicle: sodium bicarbonate): 250 % of control | T/C (dose: 6.4 mg/kg/injection, schedule: Q01DX009 (ip), vehicle: sodium bicarbonate): 179 % of control | T/C (dose: 6.5 mg/kg/injection, schedule: Q01DX001 (ip), vehicle: saline): 112 % of control | T/C (dose: 6.5 mg/kg/injection, schedule: Q01DX009 (ip), vehicle: saline): 194 % of control | T/C (dose: 13.0 mg/kg/injection, schedule: Q01DX001 (ip), vehicle: saline): 115 % of control | T/C (dose: 13.0 mg/kg/injection, schedule: Q01DX009 (ip), vehicle: saline): 152 % of control | T/C (dose: 20.0 mg/kg/injection, schedule: Q01DX001 (ip), vehicle: sodium bicarbonate): 220 % of control | T/C (dose: 26.0 mg/kg/injection, schedule: Q01DX009 (ip), vehicle: saline): 102 % of control | T/C (dose: 40.0 mg/kg/injection, schedule: Q01DX001 (ip), vehicle: sodium bicarbonate): 205 % of control

COc1ccc(N=Cc2cccc(OC)c2O)cc1.COc1ccc(N=Cc2cccc(OC)c2O)cc1.[Co]
T/C (dose: 50.0 mg/kg/injection, schedule: Q04DX003 (ip), vehicle: saline with Tween-80): 92 % of control | T/C [7]: 92 % of control | T/C [8]: 95 % of control

CCCCCCCNC1=C(c2ccccc2)C(=O)C(NCCCCCCC)=C(c2ccccc2)C1=O
T/C (dose: 100.0 mg/kg/injection, schedule: Q01DX001 (ip), vehicle: carboxymethylcellulose (CMC)): 94 % of control | T/C (dose: 200.0 mg/kg/injection, schedule: Q01DX001 (ip), vehicle: carboxymethylcellulose (CMC)): 96 % of control | T/C (dose: 400.0 mg/kg/injection, schedule: Q01DX001 (ip), vehicle: carboxymethylcellulose (CMC)): 91 % of control

S=C(NCc1ccccc1)c1ccccc1
T/C [12]: 106 % of control | T/C [13]: 108 % of control | T/C [14]: 104 % of control

O=c1[nH]c(-c2ccccc2)nc2[nH]ncc12
T/C [15]: 105 % of control | T/C [16]: 92 % of control | T/C [17]: 87 % of control

CCCNC(=O)Oc1ccccc1C(N)=O
T/C [9]: 105 % of control | T/C [10]: 102 % of control

Nc1nc(N)c2nnsc2n1
T/C [1]: 101 % of control | T/C [2]: 96 % of control | T/C [3]: 90 % of control

CCOC(=O)C1(C(C)C)OC2(O)CCCCN2C1=O (configuration not stated)
T/C (dose: 12.5 mg/kg/injection, schedule: Q04DX003 (ip), vehicle: alcohol): 106 % of control | T/C (dose: 25.0 mg/kg/injection, schedule: Q04DX003 (ip), vehicle: alcohol): 104 % of control | T/C (dose: 50.0 mg/kg/injection, schedule: Q04DX003 (ip), vehicle: alcohol): 113 % of control | T/C (dose: 100.0 mg/kg/injection, schedule: Q04DX003 (ip), vehicle: alcohol): 101 % of control

Cc1ccc(S(=O)(=O)Nc2ccc([N+](=O)[O-])cc2O)cc1
T/C [9]: 97 % of control | T/C [10]: 101 % of control | T/C [11]: 94 % of control

CC(=O)Nc1ccc(Cc2ccc(N=Cc3ccccc3)cc2)cc1
T/C [4]: 101 % of control | T/C [5]: 104 % of control | T/C [6]: 98 % of control

CC[N+]12CC=C(CO)C1C(O)CC2 (configuration not stated)
T/C (dose: 50.0 mg/kg/injection, schedule: Q01DX009 (ip), vehicle: Klucel (hydroxypropylcellulose) (HPC)): 100 % of control | T/C [9]: 95 % of control | T/C [10]: 95 % of control

COC(=O)C1=NNCC1C(=O)N1Cc2cc3ccccc3nc2C1 (configuration not stated)
T/C (dose: 10.0 mg/kg/injection, schedule: Q04DX003 (ip), vehicle: saline): 103 % of control | T/C (dose: 20.0 mg/kg/injection, schedule: Q04DX003 (ip), vehicle: saline): 99 % of control | T/C (dose: 40.0 mg/kg/injection, schedule: Q04DX003 (ip), vehicle: saline): 103 % of control | T/C (dose: 80.0 mg/kg/injection, schedule: Q04DX003 (ip), vehicle: saline): 92 % of control | T/C (dose: 160.0 mg/kg/injection, schedule: Q04DX003 (ip), vehicle: saline): 97 % of control

Brc1ccc2c(c1)/C(=C/c1ccccc1)c1ccccc1-2
T/C (dose: 25.0 mg/kg/injection, schedule: Q04DX002 (ip), vehicle: DMSO): 92 % of control | T/C (dose: 50.0 mg/kg/injection, schedule: Q04DX002 (ip), vehicle: DMSO): 95 % of control

O=S(=O)(n1ccnc1)C(F)(F)F
T/C (dose: 5.0 mg/kg/injection, schedule: Q01DX001 (ip), vehicle: saline): 102 % of control | T/C (dose: 10.0 mg/kg/injection, schedule: Q01DX001 (ip), vehicle: saline): 98 % of control | T/C (dose: 20.0 mg/kg/injection, schedule: Q01DX001 (ip), vehicle: saline): 102 % of control | T/C (dose: 40.0 mg/kg/injection, schedule: Q01DX001 (ip), vehicle: saline): 102 % of control

Nc1cccc(CCc2nc(N)nc(N)c2-c2ccc(Cl)c(Cl)c2)c1
T/C [1]: 95 % of control | T/C [2]: 109 % of control | T/C [3]: 109 % of control

CCCCCCCCCCCCCCCCN(C)C(=S)c1ccc(Cl)c(Cl)c1
T/C [12]: 100 % of control | T/C [15]: 100 % of control | T/C [13]: 100 % of control | T/C [16]: 96 % of control | T/C [14]: 98 % of control | T/C [17]: 91 % of control

O=C(NN1C(=O)CSC1=S)c1ccc([N+](=O)[O-])s1
T/C (dose: 50.0 mg/kg/injection, schedule: Q01DX005 (ip), vehicle: saline): 96 % of control | T/C (dose: 100.0 mg/kg/injection, schedule: Q01DX005 (ip), vehicle: saline): 102 % of control
